Measured values: US6730666B1, “Pharmaceutical compositions comprising porphyrins and some novel porphyrin derivatives” (Yeda Research and Development Co. Ltd., priority 1998, dated 2004)
Like-named read-outs stand apart in the source and are kept apart here.

Assays:
[1] = tested on: Lewis lung carcinoma (LLC) lung metastasis; assay: Lewis lung carcinoma lung metastasis model; type: in vivo, C57 black mice; set-up: Inhibitory activity in vivo, LLC tumor model (as % of total inhibition): reference not given here; conditions: for Inhibitory activity in vivo, LLC tumor model (as % of total inhibition): 25 μg/gram, LLC murine tumor model, lung metastasis
Procedure: (vii) Lewis lung carcinoma tumor assay. Murine Lewis lung carcinoma (LLC) D122 cells (1×10^6 cells/[…] PBS) were injected into the foot pads of 10-week old C57 black mice (O'Reilly et al, 1994). Twenty five μg/g of body mass of porphyrin or corrole compound dissolved in PBS were injected IP twice a week to the treated group, and tumor size was measured periodically in order to follow primary tumor formation. In order to evaluate inhibition of lung metastasis by porphyrin or corrole compound, the primary tumors were allowed to develop over a period of six weeks to a volume of approximately 8 mm^3; after which the tumors were removed and metastases were allowed to develop for four weeks. During this time the treated group received 25 μg/g of body mass of porphyrin or corrole compound IP twice a week. Subsequently the mice were sacrificed, dissected and the lungs removed and photographed. The extent of lung metastasis was measured by weighing the lungs.
After establishing the capacity of P1 to inhibit primary tumor growth, the capacity of P1 to inhibit lung metastasis formation was measured as described in Methods, section (vi). Mice were injected with LLC cells (200,000 cells per mouse) into the foot pad and primary tumors were allowed to develop over a period of 3 to 4 weeks to a volume of approximately 8 mm^3. Subsequently, primary tumors were removed through amputation and lung metasases were allowed to develop for four weeks before the mice were sacrificed. The extent of lung metastasis at this point was examined by gross morphological examination and by determining the gain in lung weight. […] In order to quantitate the results from these experiments, the lungs from all mice were weighed and evaluated for the extent of metastatic growth.

soluble FGFR-1 (FRAP) = target: T1, soluble FGFR-1 (FRAP) (Mus musculus, UniProt P16092); assay: Binding of 125I-bFGF to immobilized soluble FGFR-1 (FRAP), cell-free
T1 sequence (P16092 22-376 limits assumed): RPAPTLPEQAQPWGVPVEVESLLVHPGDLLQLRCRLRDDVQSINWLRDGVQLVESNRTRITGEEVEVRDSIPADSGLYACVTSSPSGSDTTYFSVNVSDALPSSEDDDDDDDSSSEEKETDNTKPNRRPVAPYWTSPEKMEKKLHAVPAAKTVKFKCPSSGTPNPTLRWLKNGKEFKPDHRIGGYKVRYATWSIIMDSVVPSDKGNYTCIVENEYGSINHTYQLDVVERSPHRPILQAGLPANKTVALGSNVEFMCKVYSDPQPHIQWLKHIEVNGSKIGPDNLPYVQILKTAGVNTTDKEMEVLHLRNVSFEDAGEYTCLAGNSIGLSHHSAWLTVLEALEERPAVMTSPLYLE
Excerpt: First we utilized a cell-free system, measuring the binding of radiolabeled bFGF to a dimeric soluble FGFR-1 fused to alkaline phosphatase. […] As a: second experimental model, we used CHO cells deficient in heparan sulfate and genetically engineered to express FGFR-1 (Methods, section (iv)).

FGFR-1 [2] = target: T2, FGFR-1 (Mus musculus, UniProt P16092); assay: Binding of 125I-bFGF to CHO cells expressing FGFR-1
T2 sequence (P16092 22-822): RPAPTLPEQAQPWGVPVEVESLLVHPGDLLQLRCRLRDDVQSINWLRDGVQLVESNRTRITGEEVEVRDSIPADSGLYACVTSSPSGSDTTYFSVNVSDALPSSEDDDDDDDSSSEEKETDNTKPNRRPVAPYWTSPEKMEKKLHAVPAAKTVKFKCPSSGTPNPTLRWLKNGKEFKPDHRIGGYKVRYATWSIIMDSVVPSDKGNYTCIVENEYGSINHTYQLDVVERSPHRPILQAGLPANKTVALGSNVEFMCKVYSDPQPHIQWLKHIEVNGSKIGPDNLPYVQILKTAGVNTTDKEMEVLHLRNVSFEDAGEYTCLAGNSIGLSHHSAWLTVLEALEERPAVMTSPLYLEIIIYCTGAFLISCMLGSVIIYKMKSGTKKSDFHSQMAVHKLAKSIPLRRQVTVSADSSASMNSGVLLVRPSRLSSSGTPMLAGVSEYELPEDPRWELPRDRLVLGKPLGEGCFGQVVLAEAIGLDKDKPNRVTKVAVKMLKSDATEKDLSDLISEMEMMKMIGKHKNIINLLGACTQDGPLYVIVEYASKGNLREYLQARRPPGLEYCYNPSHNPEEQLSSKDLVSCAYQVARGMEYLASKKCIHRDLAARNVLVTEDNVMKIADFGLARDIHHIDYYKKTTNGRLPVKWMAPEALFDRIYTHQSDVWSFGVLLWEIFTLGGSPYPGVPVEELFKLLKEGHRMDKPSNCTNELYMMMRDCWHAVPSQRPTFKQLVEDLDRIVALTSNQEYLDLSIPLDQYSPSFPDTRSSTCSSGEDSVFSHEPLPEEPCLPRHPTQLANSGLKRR
Excerpt: First we utilized a cell-free system, measuring the binding of radiolabeled bFGF to a dimeric soluble FGFR-1 fused to alkaline phosphatase. The soluble FRAP was immobilized using an anti-alkaline phosphatase antibody prebound to agarose-protein A beads (see Methods, section (iii)). As a: second experimental model, we used CHO cells deficient in heparan sulfate and genetically engineered to express FGFR-1 (Methods, section (iv)).

[3] = target: T3, FGFR-1 alkaline phosphatase fusion protein (FRAP) (Mus musculus, UniProt P16092); assay: Binding of soluble FGFR-1 alkaline phosphatase fusion protein (FRAP) to bFGF immobilized on heparin (Screen AP assay); conditions: binding of FGF to FGFR; Methods section (ii); read-out: Screen AP assay (IC50)
T3 construct: soluble FGFR-1 ectodomain alkaline phosphatase fusion protein (FRAP); made in house; host or cells: NIH 3T3 cells (conditioned medium)
T3 sequence (P16092 22-376 limits assumed): T1 sequence (P16092 22-376 limits assumed)
Procedure: (ii) Binding of soluble FGFR-1 alkaline phosphatase fusion protein (FRAP) to immobilized bFGF. […] The end-point of the assay measured enzymatically the formation of FGF-receptor complexes quantitated by the specifically associated alkaline phosphatase (AP) catalyzed chromogenic product.
Subsequently, 200 μl of FRAP condition medium and porphyrin/corrole compound were added and incubated together for 2 h.
In order to identify inhibitors of FGF-FGFR interactions, an assay for testing FGFR-ligand binding was developed. The system is composed of bFGF bound to a heparin matrix to which soluble FGFR-1 ectodomain alkaline phosphatase fusion protein (FRAP) and the screened compounds are added (see Methods, section (ii)).

FGFR-1 [4] = target: T2, FGFR-1; assay: Covalent cross-linking of 125I-bFGF to CHO cells transfected with FGFR-1; type: binding; set-up: expressed in transfected cells; host or cells: CHO cells deficient in heparan sulfate; conditions: FIG. 2
Procedure: Binding of ^125I-bFGF to confluent monolayers of PGFR-1 expressing CHO cells or ^125I-FGF9 to FGFR-3 expressing CHO cells, was performed as described in Methods, section (iv), in the presence or absence of P1 (Inhibitor). After 90 min, disuccinylimidyl suberate [DSS]
(iv) Binding of ^125I-bFGF and ^125I-FGF9 to cells. Confluent cultures of CHO cells expressing FGFR-1(Yayon et al, 1991) or FGFR-3 (Hecht et al, 1995) in 24-well plates (Falcon) were precooled and washed twice with cold DMEM supplemented with 20 mM Hepes (pH 7.5) and 0.1% bovine serum albumin (DMEM/BSA). They were then incubated for 1.5 h at 4° C. with ^125I-bFGF (2 ng/ml) and increasing concentrations of porphyrin/corrole compound. The binding medium was discarded and the cells were washed once with ice-cold DMEM/BSA and twice with cold PBS (pH 7.5) containing 1.6M NaCl. […] Non-specific binding was determined in the presence of a 100-fold excess of unlabeled bFGF.
In order to unequivocally determine the specificity of the binding inhibition, chemical cross-linking of ^125I-bFGF and ^125I-FGF9 to CHO cells transfected with FGFR-1 and FGFR-3, respectively, was carried out as described in Methods, section (iv), in the absence or presence of increasing concentrations of P1.

[5] = read-out: Soluble receptor binding (IC50), binding of FGF to FGFR, Methods section (iii)
[6] = read-out: Cellular receptor binding (IC50), binding of FGF to FGFR, Methods section (iv)

IC50 (FGFR-1 [2]) [nM] | IC50 [3] [nM] | Compound | Inhibitory activity in vivo, LLC tumor model (as % of total inhibition) [1] [%] | other results
30 | – | C[n+]1ccc(-c2c3nc(c(-c4c(F)c(F)c(F)c(F)c4F)c4ccc([nH]4)c(-c4cc[n+](C)cc4)c4nc(c(-c5c(F)c(F)c(F)c(F)c5F)c5ccc2[nH]5)C=C4)C=C3)cc1 [Compound P17, 5,15-Bis(pentafluorophenyl)-10,20-bis(N-methyl-4-pyridylium)-21H,23H-porphine diiodide] | 40 | IC50 (soluble FGFR-1 (FRAP)): 20 nM
– | 80 | C[n+]1ccc(C2=Cc3cc4[nH]c(cc5nc(cc6[nH]c(cc2n3)cc6-c2cc[n+](C)cc2)C=C5c2cc[n+](C)cc2)cc4-c2cc[n+](C)cc2)cc1 [Compound P10, 3,8,13,18-Tetrakis(N-methyl-4-pyridylium)-21H,23H-porphine tetraiodide] | – | IC50 (soluble FGFR-1 (FRAP); [5]): 850 nM; IC50 (FGFR-1 [2]; [6]): 1900 nM
– | – | C[n+]1ccccc1-c1c(F)c(F)c(-c2c3nc(c(-c4c(F)c(F)c(-c5cccc[n+]5C)c(F)c4F)c4ccc([nH]4)c4ccc([nH]4)c(-c4c(F)c(F)c(-c5cccc[n+]5C)c(F)c4F)c4ccc2[nH]4)C=C3)c(F)c1F [Compound P21, 5,10,15-Tris[2,3,5,6-tetrafluorophenyl-4-(N-methyl-2-pyridylium)]-21H,23H-corrole triiodide] | 200 | Inhibition of lung metastasis in LLC model, in words ([1]; 25 μg/g of body mass IP): highly active in vivo; Concentration inhibiting lung metastasis formation in vivo ([1]; mouse, in vivo): 5 mg/kg body weight; Inhibition of bFGF binding to immobilized FRAP, in words (soluble FGFR-1 (FRAP); FIG. 8B): inhibit bFGF binding in vitro
– | > 10000 | Tetrakis(4-cumyloxyphenoxy)phthalocyanine [Compound P4] | – | –
> 10000 | 500 | O=C(O)c1ccc(-c2c3nc(c(-c4ccc(C(=O)O)cc4)c4ccc([nH]4)c(-c4ccc(C(=O)O)cc4)c4nc(c(-c5ccc(C(=O)O)cc5)c5ccc2[nH]5)C=C4)C=C3)cc1 [Compound P11, 5,10,15,20-Tetrakis(4-carboxylatophenyl) 21H,23H-porphine tetraammonium] | – | –
– | – | C[n+]1cccc(-c2c3nc(c(-c4ccc[n+](C)c4)c4ccc([nH]4)c(-c4ccc[n+](C)c4)c4nc(c(-c5ccc[n+](C)c5)c5ccc2[nH]5)C=C4)C=C3)c1.Cc1ccc(S(=O)(=O)[O-])cc1.Cc1ccc(S(=O)(=O)[O-])cc1.Cc1ccc(S(=O)(=O)[O-])cc1.Cc1ccc(S(=O)(=O)[O-])cc1 [Compound P12, 5,10,15,20-Tetrakis(N-methyl-3-pyridylium)-21H,23H-porphine tetra-p-tosylate] | 0 | IC50 (soluble FGFR-1 (FRAP); [5]): 10000 nM; IC50 (FGFR-1 [2]; [6]): > 10000 nM
– | > 10000 | COc1ccc(-c2c3nc(c(-c4ccc(OC)cc4)c4ccc([nH]4)c(-c4ccc(OC)cc4)c4nc(c(-c5ccc(OC)cc5)c5ccc2[nH]5)C=C4)C=C3)cc1 [Compound P3, 5,10,15,20-Tetrakis(4-methoxyphenyl)-21H,23H-porphine] | – | –
– | – | C[n+]1ccccc1-c1c2nc(c(-c3cccc[n+]3C)c3ccc([nH]3)c(-c3cccc[n+]3C)c3nc(c(-c4cccc[n+]4C)c4ccc1[nH]4)C=C3)C=C2 (single isomer, unassigned) [Compound P7, 5,10,15,20-Tetrakis-(N-methyl-2-pyridylium)-21H,23H-porphine tetraiodide] | 90 | –
100 | – | C[n+]1ccc(-c2c3nc(c(-c4cc[n+](C)cc4)c4ccc([nH]4)c(-c4c(F)c(F)c(F)c(F)c4F)c4nc(c(-c5c(F)c(F)c(F)c(F)c5F)c5ccc2[nH]5)C=C4)C=C3)cc1 [Compound P18, 5,10-Bis(pentafluorophenyl)-15,20-bis(N-methyl-4-pyridylium)-21H,23H-porphine diiodide] | 50 | IC50 (soluble FGFR-1 (FRAP)): 75 nM
1800 | 100 | C[N+](C)(C)c1ccc(-c2c3nc(c(-c4ccc([N+](C)(C)C)cc4)c4ccc([nH]4)c(-c4ccc([N+](C)(C)C)cc4)c4nc(c(-c5ccc([N+](C)(C)C)cc5)c5ccc2[nH]5)C=C4)C=C3)cc1 [Compound P5, 5,10,15,20-Tetrakis[4-(trimethylammonio)phenyl]-21H,23H-porphine tetra-p-tosylate] | 75 | IC50 (soluble FGFR-1 (FRAP)): 900 nM
– | – | Cc1ccc(C(=O)Nc2ccc(S(=O)(=O)O)c3cc(S(=O)(=O)O)cc(S(=O)(=O)O)c23)cc1NC(=O)c1cccc(NC(=O)Nc2cccc(C(=O)Nc3cc(C(=O)Nc4ccc(S(=O)(=O)O)c5cc(S(=O)(=O)O)cc(S(=O)(=O)O)c45)ccc3C)c2)c1 [Suramin, reference compound] | – | Inhibition of bFGF-receptor complex formation (cross-linking), in words (FGFR-1 [4]): demonstrated FGF receptor binding inhibition
– | 100 | C[n+]1ccc(-c2c3nc(c(-c4cc[n+](C)cc4)c4ccc([nH]4)c(-c4c(F)c(F)c(NCCCN)c(F)c4F)c4nc(c(-c5cc[n+](C)cc5)c5ccc2[nH]5)C=C4)C=C3)cc1 [Compound P19] | – | IC50 (FGFR-1 [2]; [6]): 2000 nM

Compound | IC50 (FGFR-1 [2]) [nM] | IC50 [3] [nM] | Inhibitory activity in vivo, LLC tumor model (as % of total inhibition) [1] [%] | other results
C[n+]1cccc(-c2c3nc(c(-c4ccc[n+](C)c4)c4ccc([nH]4)c(-c4ccc[n+](C)c4)c4nc(c(-c5ccc[n+](C)c5)c5ccc2[nH]5)C=C4)C=C3)c1 [Compound P13, 5,10,15,20-Tetrakis(N-methyl-3-pyridylium)-21H,23H-porphine tetraiodide] | > 10000 | – | – | IC50 (soluble FGFR-1 (FRAP)): > 10000 nM
C[n+]1ccc(-c2c3nc(c(-c4cc[n+](C)cc4)c4ccc([nH]4)c(-c4cc[n+](C)cc4)c4nc(c(-c5cc[n+](C)cc5)c5ccc2[nH]5)C=C4)C=C3)cc1 [Compound P8, 5,10,15,20-Tetrakis-(N-methyl-4-pyridylium)-21H,23H-porphine tetraiodide] | – | 95 | 90 | IC50 (soluble FGFR-1 (FRAP); Soluble receptor binding (IC50), binding of FGF to FGFR, Methods section (iii)): 950 nM; IC50 (FGFR-1 [2]; Cellular receptor binding (IC50), binding of FGF to FGFR, Methods section (iv)): 1300 nM
